Laboratory results reported in patent US11938143B2, “Compositions comprising 2′-deoxycytidine analogs and use thereof for the treatment of sickle cell disease, thalassemia, and cancers” (AkiraBio, Inc., priority 2021, dated 2024).

Assays:
HbF = assay: F-cells and MFI by flow cytometry in sickle erythroid progenitors; type: cell-based, human; settings: 48 hours
Protocol: FIGS. 8A-8D show representative data pertaining to the induction of AB1 HbF and inhibition of DNMT1 levels. Sickle erythroid progenitors were treated with the various agents shown for 48 hours. […] Shown in the graph is the mean±SEM for n=6 replicates. […] In FIGS. 8C-8D, “UT” indicates untreated cells; “HU” indicates hydroxyurea; “DEC” indicates decitabine; and “AB1” indicates disclosed compound AB1; the concentrations are indicated above the graph below the text indicating treatment compound.
Additional studies were carried out in primary sickle erythroid progenitors were next conducted. Using a previously established two-phase culture system, (See NRF2 mediates γ-globin gene regulation and fetal hemoglobin induction in human erythroid progenitors Xingguo Zhu et al., Experimental Hematology 2019; 70:85-96, incorporated by reference herein) AB1 was evaluated in progenitors cultured from peripheral blood mononuclear cells (PBMC) isolated from sickle cell subjects, at concentrations of 3, 6, and 10 nM. […] Cell viability was assessed with Trypan blue, and markers of erythroid differentiation were assessed by flow cytometry using antibodies for CD71 and CD235a, to evaluate changes in differentiation. […]
We assessed effects of AB1 at the transcription levels by RT-qPCR analysis. […]

[1] = test system: sickle erythroid progenitors; assay: Erythroid differentiation markers CD71 and CD235a by flow cytometry in sickle erythroid progenitors; type: cell-based, human; settings: 48 hours
Protocol: (§1) FIGS. 6A-6B show representative data pertaining to primary sickle erythroid progenitors generated from peripheral blood mononuclear cells isolated from sickle cell patients using a two-phase liquid culture system. Cells treated for 48 hours were analyzed. […] Shown in the graph is the mean±SEM for n=6.
Additional studies were carried out in primary sickle erythroid progenitors were next conducted. Using a previously established two-phase culture system, (See NRF2 mediates γ-globin gene regulation and fetal hemoglobin induction in human erythroid progenitors Xingguo Zhu et al., Experimental Hematology 2019; 70:85-96, incorporated by reference herein) AB1 was evaluated in progenitors cultured from peripheral blood mononuclear cells (PBMC) isolated from sickle cell subjects, at concentrations of 3, 6, and 10 nM. PBMCs were isolated by Ficoll® Paque separation and cultured in IMDM supplemented with erythropoietin (2 IU), stem cell factor (10 ng/mL) and Interleukin 3 (10 ng/mL). On day seven, drug controls HU 75 μM, Dec 200 nM and AB1 (3, 6, and 10 nM) were added for 48 hours. Cell viability was assessed with Trypan blue, and markers of erythroid differentiation were assessed by flow cytometry using antibodies for CD71 and CD235a, to evaluate changes in differentiation. Proportions of F-cells and MFI were assayed by FACScan using staining with fluorescein isothiocyanate (FITC) anti-human HbF antibody (Bethyl). In our experience, primary erythroid progenitors are more sensitive to drug toxicity, so a lower dose range of AB1 was used. […] As a marker of early erythroid differentiation, CD71^+ progenitors were not affected by Dec or AB1 at any dose tested. In notable contrast, there was a 7-fold increase in CD71^+ cells mediated by HU (FIG. 6B).

[2] = test system: sickle erythroid progenitors; assay: In vitro sickling of erythroid progenitors under overnight hypoxia (2% oxygen); type: cell-based, human; settings: 48 hours treatment then overnight at 2% oxygen; AB1 3, 6, 10 nM; decitabine 200 nM; HU 75 μM
Protocol: FIGS. 9A-9B show representative data pertaining to various treatments and reduction of the level of sickle erythroid progenitors. After sickle progenitors were treated with the various drugs for 48 hours as indicated, and then incubated overnight in hypoxia conditions. […] In FIGS. 9A-9B, “UT” indicates untreated cells; “HU” indicates hydroxyurea; “DEC” indicates decitabine; and “AB1” indicates disclosed compound AB1; the concentrations are indicated, and concentration used is adjacent to the text indicating treatment compound.
We assessed effects of AB1 at the transcription levels by RT-qPCR analysis. […] Complementary studies at the protein levels were completed by flow cytometry and Western blot. […] To further support the notion that AB1 induces HbF expression, Western blot analysis was performed. […] It was observed that there was a dose-dependent 80% decrease in DNMT1 in sickle erythroid progenitors at the highest AB1 10 nM concentration (FIG. 8 D). […] After treatment for 48 hours, with the various drugs, the cells were incubated overnight at 2% oxygen, then fixed with formalin and the number of sickle versus non-sickle cells counted by phase contrast microscopy, a method previously published by the Pace (PI/PD) group (see Zhu, X., Li, B. & Pace, B. S. Haematologica 102, e285-e288, doi:10.3324/haematol.2016.160788 (2017)). […]

[3] = Cell viability of primary sickle erythroid progenitors by Trypan blue; type: cell-based; settings: human, HU 75 μM, read-out: drop in cell viability
Protocol: as §1
Additional studies were carried out in primary sickle erythroid progenitors were next conducted. Using a previously established two-phase culture system, (See NRF2 mediates γ-globin gene regulation and fetal hemoglobin induction in human erythroid progenitors Xingguo Zhu et al., Experimental Hematology 2019; 70:85-96, incorporated by reference herein) AB1 was evaluated in progenitors cultured from peripheral blood mononuclear cells (PBMC) isolated from sickle cell subjects, at concentrations of 3, 6, and 10 nM. PBMCs were isolated by Ficoll® Paque separation and cultured in IMDM supplemented with erythropoietin (2 IU), stem cell factor (10 ng/mL) and Interleukin 3 (10 ng/mL). On day seven, drug controls HU 75 μM, Dec 200 nM and AB1 (3, 6, and 10 nM) were added for 48 hours. Cell viability was assessed with Trypan blue, and markers of erythroid differentiation were assessed by flow cytometry using antibodies for CD71 and CD235a, to evaluate changes in differentiation. […]

Structure (SMILES)	F-cell levels (HbF; average of SCD patients, increase from 16%, all AB1 concentrations tested, Dec 200 nM)	CD71+ progenitors (marker of early erythroid differentiation) ([1]; Dec 200 nM, AB1 at any dose tested (3, 6, 10 nM))	level of CD235a+ cells (marker of terminal differentiation) ([1]; HU 75 μM, Dec 200 nM, AB1 3, 6, 10 nM)	decrease in sickle cells [2]	F-cell induction (HbF; HU 75 μM, all patient data combined)	cytotoxicity at 48 h, 75 μM [3]	increase in CD71+ cells ([1]; HU 75 μM)
Nc1ncn([C@H]2C[C@H](O)[C@@H](CO)O2)c(=O)n1 [Dec, 4-amino-1-(2-deoxy-b-D-erythro-pentofuranosyl)-1,3,5-triazin-2(1H)-one]	22%	not affected	increased by all drugs except Dec	80%	–	–	–
NC(=O)NO [HU, hydroxyurea]	–	–	–	50%	not observed	40%	7 fold
